Source: patent US20230312587A1, “PTERIDINONE COMPOUNDS AND USES THEREOF” (Vertex Pharmaceutical Incorporated, priority 2018, published 2023)

Tests used:
[1] = tested on: Hek293 cells over-expressing WFS1; assay: Calcium flux in Hek293 cells over-expressing WFS1 vs empty vector; format: cell-based; settings: induction of calcium flux
Source text: To determine the effect of WFS1 over-expression on compound mediated effects on calcium flux and cell viability, Hek293 cells were transduced with either an empty retroviral vector or a retroviral vector expressing full length WFS1 cDNA. Hek293 cells transduced with the WFS1 encoding retrovirus expressed greater than 100 times the amount of WFS1 protein than empty vector Hek293 cells (FIG. 3).

[2] = biological target: WFS1 (Homo sapiens (Human), UniProt O76024); assay: Binding of radiolabeled Compound 136 to cellular membrane extracts
Method: Cell pellets were re-suspended in 15 times packed cellular volume in 4° C. hypotonic lysis buffer (10 mM HEPES, pH 7.5 containing 1×Protease inhibitor, 0.5 mM EDTA and 2 mM DTT). Re-suspended cells were homogenized with 6-8 strokes in a dounce homogenizer kept on ice. Lysates were centrifuged at 500×G for 15 minutes at 4° C. without brake to decelerate rotor. Following centrifugation, remove the supernatant to a fresh tube and place on ice (Supernatant 1). Repeat the above steps on the lysed cell pellet using 0.5 the original volume of hypotonic lysis buffer and remove the 500× G supernatant (Supernatant 2) and combine with Supernatant 1. Transfer the combined supernatants to a 45-Ti ultracentrifuge tube and centrifuge at 100,000× G for 30 minutes. Following ultracentrifugation, carefully remove the supernatant and discard. Resuspend the 100,000× G pellet in cold resuspension buffer (10 mM HEPES, pH 7.5, 300 mM NaCl containing 1× Protease inhibitor, 1× EDTA and 2 mM DTT). […]
The binding affinities of compounds were determined by measuring the competitive displacement of a tritiated Compound 136 probe from purified HEK293 membranes over-expressing WFS-1. […]
The binding affinity of radiolabeled Compound 136 to cell membranes derived from cells expressing different levels of WFS1 as determined by immunoblotting is shown in FIG. 8. […]

Chain of WFS1 (O76024 whole entry): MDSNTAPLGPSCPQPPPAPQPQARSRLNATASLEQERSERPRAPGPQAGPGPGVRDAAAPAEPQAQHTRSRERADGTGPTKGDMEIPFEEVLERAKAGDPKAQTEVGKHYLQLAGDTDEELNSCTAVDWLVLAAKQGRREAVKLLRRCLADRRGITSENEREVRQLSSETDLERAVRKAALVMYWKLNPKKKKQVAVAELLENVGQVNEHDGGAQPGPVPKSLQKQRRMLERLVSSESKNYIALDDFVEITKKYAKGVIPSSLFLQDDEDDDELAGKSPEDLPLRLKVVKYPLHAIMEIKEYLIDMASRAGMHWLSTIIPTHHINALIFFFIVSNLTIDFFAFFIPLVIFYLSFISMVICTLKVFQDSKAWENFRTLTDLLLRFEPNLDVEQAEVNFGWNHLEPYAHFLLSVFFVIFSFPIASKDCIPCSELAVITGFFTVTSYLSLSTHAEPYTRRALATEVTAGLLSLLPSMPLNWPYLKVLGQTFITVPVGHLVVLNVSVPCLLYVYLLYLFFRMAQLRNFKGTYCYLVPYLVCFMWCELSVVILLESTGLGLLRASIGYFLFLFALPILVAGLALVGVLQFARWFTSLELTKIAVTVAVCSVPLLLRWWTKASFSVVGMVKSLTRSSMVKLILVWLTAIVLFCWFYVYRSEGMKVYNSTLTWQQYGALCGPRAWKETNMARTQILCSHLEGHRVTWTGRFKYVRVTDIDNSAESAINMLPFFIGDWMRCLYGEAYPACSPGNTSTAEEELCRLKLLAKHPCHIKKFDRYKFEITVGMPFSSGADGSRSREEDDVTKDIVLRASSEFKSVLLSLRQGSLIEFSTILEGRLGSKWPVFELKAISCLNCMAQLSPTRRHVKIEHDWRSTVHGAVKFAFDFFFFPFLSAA

## Cc1nc(NCc2cnn(Cc3ccc(C(F)(F)F)nc3)c2)nc2c1NC(=O)[C@H](C)N2C [Compound 136, (7S)-4,7,8-trimethyl-2-(((1-((6-(trifluoromethyl)pyridin-3-yl)methyl)-111-pyrazol-4-yl)methyl)amino)-7,8-dihydropteridin-6(5H)-one]
[1]
  reduction in the EC50 on over-expression of WFS1: approximately 10 fold
[2]; radiolabeled (tritiated) Compound 136
  binding to cellular membrane extracts which over-express WFS1: specifically bind
[2]; radiolabeled Compound 136, cells expressing different levels of WFS1
  Bmax vs level of WFS1 protein in cellular membrane: correlates with the level of WFS1 protein
